These results are taken from US4142046A, “Intermediates for the preparation of 7-acyl-3-(substituted triazolylthiomethyl)cephalosporins” (SmithKline Corporation, priority 1976, dated 1979).

≈ marks a conversion by molar mass, not a printed value.

The test system of one assay is E. coli HH 33779. Put plainly: MIC in vitro. It is filed as cell-based. As to conditions: Escherichia coli, HH33779. As to the method:
(§1) The compounds of Formula I have antibacterial activity against both Gram-positive and Gram-negative organisms. Minimum inhibitory concentrations (MIC's) ranged from 0.2 to >200 μg./ml. in in vitro testing. […] Compound numbers corresponding to structures are given in the experimental section.

Another assay deals with E. coli SK 12140. Put plainly: MIC in vitro. It is filed as cell-based. As to conditions: Escherichia coli, SK12140; E. coli SK 12140; read-out: MIC in vitro. Here is the method:
as §1

The subject of assay [1] is Entero. aerog. ATCC 13048. Put plainly: MIC in vitro. It is filed as cell-based. Here is the method: as §1
In the next assay the test system is Entero. cloacae HH 31254. Put plainly: MIC in vitro. It is filed as cell-based. As to conditions: Enterobacter cloacae, HH31254, Entero. cloacae HH 31254; read-out: MIC in vitro. Here is the method: as §1
For the next assay, the system named is Kleb. pneumo. SK 1200. Put plainly: MIC in vitro. In kind it is cell-based. Particulars: read-out: MIC in vitro, Kleb. pneumo. SK 1200. Here is the method: as §1
The subject of a further assay is Kleb. pneumo. SK 4200. Put plainly: MIC in vitro. It is filed as cell-based. Particulars: Kleb. pneumo. SK 4200; read-out: MIC in vitro. As to the method: as §1
Another assay deals with Proteus Morgani 179. Put plainly: MIC in vitro. It is filed as cell-based. Here is the method: as §1
The next assay has as its system Pseudo. sp. HH 63. Put plainly: MIC in vitro. In kind it is cell-based. Here is the method: as §1
A further assay has as its system S. aureus HH 127. Put plainly: MIC in vitro. In kind it is cell-based. As to conditions: Staphylococcus aureus, HH127, read-out: MIC in vitro. As to the method: as §1
For the next assay, the system named is S. aureus SK 23390. Put plainly: MIC in vitro. In kind it is cell-based. Particulars: Staphylococcus aureus, SK23390, read-out: MIC in vitro. Here is the method: as §1
The next assay has as its system S. villaluz. Put plainly: MIC in vitro. It is filed as cell-based. As to conditions: read-out: MIC in vitro. As to the method: as §1
The subject of another assay is Salmonella ATCC 12176. Put plainly: MIC in vitro. In kind it is cell-based. As to conditions: ATCC12176. As to the method:
as §1

The test system of another assay is Serra. marc. ATCC 13880. Put plainly: MIC in vitro. It is filed as cell-based. Here is the method:
as §1

The next assay concerns Shigella HH 117. Put plainly: MIC in vitro. It is filed as cell-based. Particulars: Shigella, HH117, Shigella HH 117. As to the method: as §1
For a further assay, the system named is Strep. faecalis HH 34358. Put plainly: MIC in vitro. Particulars: Enterococcus faecalis, HH34358, Strep. faecalis HH 34358. It is filed as cell-based. Here is the method: as §1
In the next assay the test system is E. coli 12140. Put plainly: In vivo mouse protection (ED50).
In another assay the test system is Kleb. pneumo. 4200. Put plainly: In vivo mouse protection (ED50). As to conditions: Mus musculus.

As for `N[C@@H](C(=O)NC1C(=O)N2C(C(=O)O)=C(CSc3n[nH]c(CC(=O)O)n3)CS[C@H]12)c1ccc(O)cc1` (stereo partly drawn) [VII, 7-(D-α-Amino-4-hydroxyphenylacetamido)-3-(5-carboxymethyl-1,2,4-triazol-3-ylthiomethyl)-3-cephem-4-carboxylic acid], the minimum inhibitory concentration (MIC) stood at 12.5 µg/mL (≈ 24 µM) in the assay on E. coli HH 33779; 3.1 µg/mL (≈ 5.96 µM) in the assay with E. coli SK 12140; 25 µg/mL (≈ 48 µM) in [1]; 3.1 µg/mL (≈ 5.96 µM) with Entero. cloacae HH 31254; 6.3 µg/mL (≈ 12.1 µM) with Kleb. pneumo. SK 1200; 1.6 µg/mL (≈ 3.07 µM) in the assay with Kleb. pneumo. SK 4200. Moreover, the MIC against Proteus Morgani 179 is more than 200 µg/mL; with Pseudo. sp. HH 63, more than 200 µg/mL; in the assay on S. aureus HH 127, 12.5 µg/mL (≈ 24 µM); with S. aureus SK 23390, 12.5 µg/mL (≈ 24 µM); in the assay on S. villaluz, more than 200 µg/mL; with Salmonella ATCC 12176, 1.6 µg/mL (≈ 3.07 µM). Besides, the MIC against Serra. marc. ATCC 13880 is more than 200 µg/mL; with Shigella HH 117, 6.3 µg/mL (≈ 12.1 µM); in the assay with Strep. faecalis HH 34358, 100 µg/mL (≈ 192 µM). Moreover, the ED50 with E. coli 12140 (Escherichia coli, 12140, po, E. coli 12140, p.o.) was more than 50 mg/kg; in the assay with E. coli 12140 (Escherichia coli, 12140, sc, E. coli 12140, s.c.), 3 mg/kg; in the assay on Kleb. pneumo. 4200 (po, Kleb. pneumo. 4200, p.o.), 31 mg/kg; with Kleb. pneumo. 4200 (sc, Kleb. pneumo. 4200, s.c.) it was 1.1 mg/kg.

The MIC is the lowest concentration found to suppress growth. Broadly, the ED50 is the midpoint of the dose-response relation.
